Data as given in ChEMBL document CHEMBL1201862, “PubChem BioAssay data set” (2004).
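Five concentrations, 48 hours, 96-well plates. GI50 marks 50% less growth.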 The source made the active and inactive calls. Cut-off read from the data, not from the text of the source: active = GI50 up to about 1.1 µM and inactive = higher.

Key:
Test in all cases: growth of human tumour cells (NCI), 48 h
HCT-15 = system: HCT-15
UACC-62 = system: UACC-62
HOP-18 = system: HOP-18
KM12 = system: KM12
SNB-19 = system: SNB-19
SK-MEL-5 = system: SK-MEL-5
SK-MEL-28 = system: SK-MEL-28
DMS-273 = system: DMS-273
SF-295 = system: SF-295
IGROV-1 = system: IGROV-1
U-251 = system: U-251
RXF 631 = system: RXF 631
K562 = system: K562
SN12C = system: SN12C
HT-29 = system: HT-29
UACC-257 = system: UACC-257
CAKI-1 = system: CAKI-1
OVCAR-3 = system: OVCAR-3
SR = system: SR
NCI-H226 = system: NCI-H226
RPMI-8226 = system: RPMI-8226
TK-10 = system: TK-10
SNB-78 = system: SNB-78
A549 = system: A549
RXF 393 = system: RXF 393
KM-20L2 = system: KM-20L2
HCC 2998 = system: HCC 2998
SF-539 = system: SF-539
786-0 = system: 786-0
M19-MEL = system: M19-MEL
SNB-75 = system: SNB-75
EKVX = system: EKVX
SW-620 = system: SW-620
NCI-H460 = system: NCI-H460
UO-31 = system: UO-31
LOX IMVI = system: LOX IMVI
OVCAR-4 = system: OVCAR-4
HL-60 = system: HL-60
LXFL 529 = system: LXFL 529
OVCAR-5 = system: OVCAR-5
OVCAR-8 = system: OVCAR-8
ACHN = system: ACHN
HOP-92 = system: HOP-92
HOP-62 = system: HOP-62
SK-MEL-2 = system: SK-MEL-2
COLO 205 = system: COLO 205
A498 = system: A498
CCRF-CEM = system: CCRF-CEM
NCI-H522 = system: NCI-H522
SF-268 = system: SF-268
MOLT-4 = system: MOLT-4
HCT-116 = system: HCT-116
NCI-H23 = system: NCI-H23
Malme-3M = system: Malme-3M
DMS-114 = system: DMS-114
XF498 = system: XF498
SK-OV-3 = system: SK-OV-3
M14 = system: M14
DLD-1 = system: DLD-1

O=C1[C@@H]2C(c3ccccc3F)=NO[C@@H]2C(=O)N1c1ccc(Cc2ccc(N3C(=O)[C@H]4C(c5ccccc5F)=NO[C@H]4C3=O)cc2)cc1
GI50 (HCT-15): > 100 µM | GI50 (UACC-62): > 100 µM (inactive) | GI50 (HOP-18): > 100 µM (inactive) | GI50 (KM12): > 100 µM (inactive) | GI50 (SNB-19): > 100 µM (inactive) | GI50 (SK-MEL-5): > 100 µM (inactive) | GI50 (SK-MEL-28): > 100 µM (inactive) | GI50 (DMS-273): > 100 µM (inactive) | GI50 (SF-295): > 100 µM (inactive) | GI50 (IGROV-1): > 100 µM (inactive) | GI50 (U-251): > 100 µM (inactive) | GI50 (RXF 631): > 100 µM (inactive) | GI50 (K562): > 55.1 µM (inactive) | GI50 (SN12C): > 100 µM (inactive) | GI50 (HT-29): > 100 µM (inactive) | GI50 (UACC-257): > 100 µM (inactive) | GI50 (CAKI-1): > 100 µM (inactive) | GI50 (OVCAR-3): > 100 µM (inactive) | GI50 (SR): 34.1 µM (inactive) | GI50 (NCI-H226): > 100 µM (inactive) | GI50 (RPMI-8226): 29.4 µM (inactive) | GI50 (TK-10): > 31.6 µM (inactive) | GI50 (SNB-78): > 100 µM (inactive) | GI50 (A549): > 100 µM (inactive) | GI50 (RXF 393): > 43.7 µM (inactive) | GI50 (KM-20L2): > 100 µM (inactive) | GI50 (HCC 2998): > 100 µM (inactive) | GI50 (SF-539): > 100 µM (inactive) | GI50 (786-0): > 100 µM (inactive) | GI50 (M19-MEL): > 100 µM (inactive) | GI50 (SNB-75): > 100 µM (inactive) | GI50 (EKVX): > 100 µM (inactive) | GI50 (SW-620): > 75.7 µM (inactive) | GI50 (NCI-H460): > 100 µM (inactive) | GI50 (UO-31): > 100 µM (inactive) | GI50 (LOX IMVI): > 100 µM (inactive) | GI50 (OVCAR-4): > 100 µM (inactive) | GI50 (HL-60): 14.4 µM (inactive) | GI50 (LXFL 529): > 100 µM (inactive) | GI50 (OVCAR-5): > 100 µM (inactive) | GI50 (OVCAR-8): > 100 µM (inactive) | GI50 (ACHN): > 100 µM (inactive) | GI50 (HOP-92): 34.4 µM (inactive) | GI50 (HOP-62): > 100 µM (inactive) | GI50 (SK-MEL-2): > 100 µM (inactive) | GI50 (COLO 205): > 100 µM (inactive) | GI50 (A498): > 100 µM (inactive) | GI50 (CCRF-CEM): 16 µM (inactive) | GI50 (NCI-H522): > 100 µM (inactive) | GI50 (SF-268): > 100 µM (inactive) | GI50 (MOLT-4): 19.6 µM (inactive) | GI50 (HCT-116): > 100 µM (inactive) | GI50 (NCI-H23): > 100 µM (inactive) | GI50 (Malme-3M): > 100 µM (inactive) | GI50 (DMS-114): > 100 µM (inactive) | GI50 (XF498): > 87.3 µM (inactive) | GI50 (SK-OV-3): > 100 µM (inactive) | GI50 (M14): > 100 µM (inactive) | GI50 (DLD-1): > 100 µM (inactive)

O=C(O)c1[nH]c(C(=O)O)c(CC(F)(F)C(F)(F)C(F)(F)F)c1CC(F)(F)C(F)(F)C(F)(F)F
GI50 (HCT-15): > 100 µM | GI50 (UACC-62): > 100 µM (inactive) | GI50 (HOP-18): > 100 µM (inactive) | GI50 (KM12): > 100 µM (inactive) | GI50 (SNB-19): > 100 µM (inactive) | GI50 (SK-MEL-5): > 100 µM (inactive) | GI50 (SK-MEL-28): > 100 µM (inactive) | GI50 (DMS-273): > 100 µM (inactive) | GI50 (SF-295): > 100 µM (inactive) | GI50 (IGROV-1): > 100 µM (inactive) | GI50 (U-251): > 100 µM (inactive) | GI50 (RXF 631): > 100 µM (inactive) | GI50 (K562): > 100 µM (inactive) | GI50 (SN12C): > 100 µM (inactive) | GI50 (HT-29): > 100 µM (inactive) | GI50 (UACC-257): > 100 µM (inactive) | GI50 (CAKI-1): > 100 µM (inactive) | GI50 (OVCAR-3): > 100 µM (inactive) | GI50 (NCI-H226): > 100 µM (inactive) | GI50 (RPMI-8226): > 100 µM (inactive) | GI50 (TK-10): > 100 µM (inactive) | GI50 (SNB-78): > 100 µM (inactive) | GI50 (A549): > 100 µM (inactive) | GI50 (RXF 393): > 100 µM (inactive) | GI50 (KM-20L2): > 100 µM (inactive) | GI50 (HCC 2998): > 100 µM (inactive) | GI50 (SF-539): > 100 µM (inactive) | GI50 (786-0): > 100 µM (inactive) | GI50 (M19-MEL): > 100 µM (inactive) | GI50 (SNB-75): > 100 µM (inactive) | GI50 (EKVX): > 100 µM (inactive) | GI50 (SW-620): > 100 µM (inactive) | GI50 (NCI-H460): > 100 µM (inactive) | GI50 (UO-31): > 100 µM (inactive) | GI50 (LOX IMVI): > 100 µM (inactive) | GI50 (OVCAR-4): > 100 µM (inactive) | GI50 (HL-60): > 100 µM (inactive) | GI50 (LXFL 529): > 100 µM (inactive) | GI50 (OVCAR-5): > 100 µM (inactive) | GI50 (OVCAR-8): > 100 µM (inactive) | GI50 (ACHN): > 100 µM (inactive) | GI50 (HOP-92): 39.9 µM (inactive) | GI50 (HOP-62): > 100 µM (inactive) | GI50 (COLO 205): > 100 µM (inactive) | GI50 (A498): > 100 µM (inactive) | GI50 (CCRF-CEM): > 100 µM (inactive) | GI50 (NCI-H522): > 100 µM (inactive) | GI50 (SF-268): > 100 µM (inactive) | GI50 (HCT-116): > 100 µM (inactive) | GI50 (NCI-H23): > 100 µM (inactive) | GI50 (Malme-3M): > 100 µM (inactive) | GI50 (DMS-114): > 100 µM (inactive) | GI50 (XF498): > 100 µM (inactive) | GI50 (SK-OV-3): > 100 µM (inactive) | GI50 (M14): > 100 µM (inactive) | GI50 (DLD-1): > 100 µM (inactive)
